Laboratory results reported in publication PMC9031298, “Enhanced In Vitro Antiviral Activity of Hydroxychloroquine Ionic Liquids against SARS-CoV-2” (Pharmaceutics, 2022).
Values joined by “and” are separate entries in the source; they are usually repeats but may differ in a detail not shown here. Equal values may be shown once. Where a name gives a salt, the structure may show the parent alone. Read-outs that look alike come from different tables or passages of the source.

Assays:
[1] = tested on: Vero E6 cells
[2] = tested on: SARS-CoV-2; test: microbe, parasite or virus in culture; assay type: cell-based; details: for EC50 / EC90: qRT-PCR; for EC50: four experiments, read-out: EC50, inhibition of vRNA transcription; for EC90: read-out: EC90, inhibition of vRNA transcription; for inhibition of vRNA transcription: at 16.7 μM, 48 hpi
[3] = tested on: SARS-CoV-2; test: microbe, parasite or virus in culture; assay type: cell-based; details: for EC50 / EC90: TCID50 assay; for EC50: three experiments, read-out: EC50, inhibition of production of infectious progeny viruses; for EC90: read-out: EC90, inhibition of production of infectious progeny viruses
[4] = tested on: SARS-CoV-2; details: for inhibition of CPE: at 10 μM, Vero E6, 72 hpi; for EC50: read-out: EC50, inhibition of virus-induced CPE; for EC90: read-out: EC90, inhibition of virus-induced CPE
[5] = tested on: Vero E6 cells; test: Cell viability assay (CellTiter-Glo), cytotoxicity; details: non-infected Vero E6 cells, 72 h, mean of three experiments
[6] = Octanol–water partition coefficient (Kow, Log P) by UV–Vis; details: logarithm of Kow, ca. 1 mg/mL, triplicate
[7] = Water solubility by stepwise addition of water until visual dissolution; details: double-distilled water, 37 °C; for solubility: water, thermodynamic from solid; for Water Solubility: visual inspection
[8] = Critical micelle concentration by ionic conductivity; assay type: physicochemical; details: 20 °C, water
Method: The critical micelle concentrations of the HCQ-ILs with surfactant-like anions were calculated using ionic conductivity measurements. A Crison Basic 30+ Radiometer Analytical conductivity meter was used to measure the ionic conductivities (μS/cm) of surfactant solutions in a glass cell at 20 °C containing a magnetic stirrer. For this method, a known amount of Milli-Q water was placed in a thermostated glass cell and the surfactant solution of known concentration was progressively added using a micropipette under constant stirring. Each conductivity value was measured at least three times.
The ability to form micelles of the lipophilic HCQ-ILs [DocSO3] (5) and [C12SO4] (8) was studied by ionic conductivity measurements. The inherent ability of these HCQ-ILs to self-aggregate into micelles can render adequate drug delivery properties. […] The critical micelle concentration (cmc) values, calculated by resolving both equations, are given in Table 3, alongside the cmc values for the starting halide salts (Na[DocSO3] and [C12SO4]).

[9] = cited from earlier work
[10] = tested on: SARS-CoV-2; test: microbe, parasite or virus in culture; details: Severe acute respiratory syndrome coronavirus 2, Vero C1008, read-out: EC90, inhibition of virus-induced CPE, Vero E6 cells, 100 TCID50, 72 hpi
[11] = Cell viability assay (CellTiter-Glo), cytotoxicity; details: African green monkey, Vero E6 cells (non-infected), CC50, non-infected Vero E6 cells, mean of three experiments
[12] = Vero E6 cells, 100 TCID50, 72 hpi
[13] = Severe acute respiratory syndrome coronavirus 2, Vero C1008, Vero E6, 48 hpi

## CS(=O)(=O)[O-].[K+] [3a, potassium methanesulfonate]
[1]
  CC50: > 400 µM

## CCN(CCO)CCCC(C)Nc1ccnc2cc(Cl)ccc12.CS(=O)(=O)O.CS(=O)(=O)O (centres unmarked) [compound 3, N^4-(7-chloroquinolin-4-yl)-N^1-ethyl-N^1-(2-hydroxyethyl)pentane-1,4-diaminium bis(methanesulfonate)]
[2]; Vero E6, 48 hpi
  EC50: 17 µM
  EC90: 23.4 µM
[2]
  inhibition of vRNA transcription: 48.5%
[3]; Vero E6, 48 hpi
  EC50: 21.8 µM
  EC90: 24.4 µM
[4]
  inhibition of CPE: 70.5%
[4]; [12]
  EC50: 8.1 µM and 8.14 µM
  EC90: > 25 µM
[5]
  CC50: 219 µM
[6]
  Log P: −0.22
[7]
  solubility: 1800 mg/mL

## CCCCCCCCCCCCS(=O)(=O)O.CCCCCCCCCCCCS(=O)(=O)O.CCN(CCO)CCCC(C)Nc1ccnc2cc(Cl)ccc12 (centres unmarked) [compound 8, N^4-(7-chloroquinolin-4-yl)-N^1-ethyl-N^1-(2-hydroxyethyl)pentane-1,4-diaminium bis(dodecane-1-sulfonate)]
[8]
  cmc: 4.83 µM
[4]
  EC50: 15.8 µM
  EC90: 23.8 µM
[6]
  Log P: 1.01
[7]
  Water Solubility: <0.5 mg/mL

## CCCCCCCCCCCCOS(=O)(=O)[O-].[Na+] [8a, reference compound]
[8]
  cmc: 9600 µM
[9]
  Reference cmc (25 °C): 8.0 × 10^−3 [72] M

## CC1(C)C2CC[C@@]1(CS(=O)(=O)O)C(=O)C2.CC1(C)C2CC[C@@]1(CS(=O)(=O)O)C(=O)C2.CCN(CCO)CCCC(C)Nc1ccnc2cc(Cl)ccc12 (centres unmarked) [compound 6]
[6]
  Log P: −1.16
[7]
  Water Solubility: 2020 mg/mL

## O=C([O-])[C@H](O)[C@@H](O)[C@H](O)[C@H](O)CO.[Na+] [9a]
[1]
  CC50: > 400 µM

## CCCCC(CC)COC(=O)CC(C(=O)OCC(CC)CCCC)S(=O)(=O)O.CCCCC(CC)COC(=O)CC(C(=O)OCC(CC)CCCC)S(=O)(=O)O.CCN(CCO)CCCC(C)Nc1ccnc2cc(Cl)ccc12 (centres unmarked) [compound 5, N^4-(7-chloroquinolin-4-yl)-N^1-ethyl-N^1-(2-hydroxyethyl)pentane-1,4-diaminium bis(1,4-bis((2-ethylhexyl)oxy)-1,4-dioxobutane-2-sulfonate)]
[8]
  cmc: 1.79 µM
[4]
  SI (CC50/EC50), CPE inhibition: 7.8
  EC50: 8.9 µM
  EC90: 20.9 µM
[5]
  CC50: 69.8 µM
[6]
  Log P: 1.24
[7]
  Water Solubility: <0.5 mg/mL

## CCCCCCS(=O)(=O)O [4a]
[1]
  CC50: > 400 µM

## CCCCC(CC)COC(=O)CC(C(=O)OCC(CC)CCCC)S(=O)(=O)[O-].[Na+] (centres unmarked) [5a]
[8]
  cmc: 1540 µM
[9]
  Reference cmc (25 °C): 5.0 × 10^−3 [71] M

## Cc1ccc(S(=O)(=O)[O-])cc1.[Na+] [7a]
[1]
  CC50: > 400 µM

## CC1(C)C2CC[C@@]1(CS(=O)(=O)[O-])C(=O)C2.[Na+] [6a]
[1]
  CC50: 142 µM

## CCN(CCO)CCCC(C)Nc1ccnc2cc(Cl)ccc12 (centres unmarked) [compound 1, hydroxychloroquine sulfate, reference compound]
[2]; [13]
  EC50: 18.6 µM
  EC90: 25.1 µM
[2]
  inhibition of vRNA transcription: 34.0%
[3]; [13]
  EC50: 21.7 µM
  EC90: 24.3 µM
[4]
  inhibition of CPE: lower than 20%
[4]; [12]
  EC50: 16.5 µM
[10]
  EC90: 23 µM
[11]
  CC50 at 72 h: 214 µM
[6]
  Log P: −2.25

## CCN(CCO)CCC[C@H](C)Nc1ccnc2cc(Cl)ccc12 [compound 6]
[4]
  EC90: > 25 µM
[5]
  CC50: 73.2 µM

## CCN(CCO)CCCC(C)Nc1ccnc2cc(Cl)ccc12.O=C(O)[C@@H](O)[C@H](O)[C@@H](O)[C@@H](O)CO.O=C(O)[C@@H](O)[C@H](O)[C@@H](O)[C@@H](O)CO [compound 9, N^4-(7-chloroquinolin-4-yl)-N^1-ethyl-N^1-(2-hydroxyethyl)pentane-1,4-diaminium bis((2S,3R,4S,5S)-2,3,4,5,6-pentahydroxyhexanoate)]
[2]; Vero E6, 48 hpi
  EC50: 16.3 µM
  EC90: 23.1 µM
[2]
  inhibition of vRNA transcription: 55.8%
[3]; Vero E6, 48 hpi
  EC50: 16.9 µM
  EC90: 22.5 µM
[3]; at 16.7 μM, 48 hpi
  inhibition of production of infectious progeny: 56.5%
[4]
  EC50: 8.5 µM
  EC90: > 25 µM
[5]
  CC50: 196 µM
[6]
  Log P: −1.39
[7]
  Water Solubility: 1230 mg/mL

## CCN(CCO)CCCC(C)Nc1ccnc2cc(Cl)ccc12.Cc1ccc(S(=O)(=O)O)cc1.Cc1ccc(S(=O)(=O)O)cc1 (centres unmarked) [compound 7, N^4-(7-chloroquinolin-4-yl)-N^1-ethyl-N^1-(2-hydroxyethyl)pentane-1,4-diaminium bis(4-methylbenzenesulfonate)]
[4]; [12]
  EC50: 15 µM
  EC90: 21.1 µM
[5]
  CC50: 207 µM
[6]
  Log P: −1.12
[7]
  solubility: 1400 mg/mL
